Legend:
Assay in all cases: relative viability vs DMSO control (72 h) (fraction); higher = more viable cells
[1] = tested on: HS729
In short: (§1)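 Sarcoma cell lines were grown in 384-well plates seeded toward 80–90% confluence and exposed 24 h later to serially diluted compound. After 72 h at 37 °C and 5% CO2, with 0.1% DMSO vehicle and a 5 µM positive control on the plates, ATPLite was read. Relative viability, given as percent growth averaged over up to triplicate wells, was rescaled so that 1 is full and 0 is none.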

[2] = tested on: MES-SA
In short: as §1

[3] = tested on: RD
In short: as §1

[4] = tested on: SK-LMS-1
In short: as §1

[5] = tested on: VA-ES-BJ
In short: as §1

Cc1c(F)cc(C(=O)NC2CC2)cc1-c1ccc(C(=O)NCC(C)(C)C)cn1 [Losmapimod]
relative viability
Conditions | [1] | [2] | [3] | [4] | [5]
0.00017 µM | 1.09 | 0.997 | 1.11 | 1.02 | 1.11
0.00051 µM | 1.04 | 0.9963 | 1.11 | 1.02 | 1.1
0.00152 µM | 1.06 | 0.967 | 1.1 | 1.01 | 1.07
0.00457 µM | 1.02 | 0.951 | 1.14 | 1 | 1.07
0.01372 µM | 0.972 | 0.96 | 1.12 | 0.995 | 1.07
0.04115 µM | 0.954 | 0.935 | 1.13 | 1.02 | 1.06
0.1235 µM | 0.903 | 0.9396 | 1.11 | 1.005 | 0.988
0.3704 µM | 0.848 | 0.928 | 1.07 | 0.978 | 1.03
1.111 µM | 0.818 | 0.8915 | 1.08 | 0.981 | 1.03
3.333 µM | 0.805 | 0.866 | 1.02 | 0.967 | 1.02
10 µM | 0.809 | 0.879 | 1.07 | 0.946 | 1

CN(C)C[C@@H]1CCn2cc(c3ccccc32)C2=C(C(=O)NC2=O)c2cn(c3ccccc23)CCO1 [Ruboxistaurin]
relative viability
Conditions | [1] | [2] | [3] | [4] | [5]
0.00017 µM | 0.917 | 0.918 | 1.09 | 1.05 | 0.988
0.00051 µM | 0.936 | 0.909 | 1.09 | 1.02 | 0.999
0.00152 µM | 0.8749 | 0.9276 | 1.11 | 1.05 | 0.984
0.00457 µM | 0.882 | 0.9006 | 1.12 | 1.05 | 0.988
0.01372 µM | 0.895 | 0.923 | 1.11 | 1.09 | 0.982
0.04115 µM | 0.939 | 0.91 | 1.1 | 1.08 | 0.996
0.1235 µM | 0.894 | 0.898 | 1.12 | 1.05 | 0.9734
0.3704 µM | 0.819 | 0.887 | 1.1 | 0.995 | 0.945
1.111 µM | 0.917 | 0.84 | 1.127 | 0.922 | 0.861
3.333 µM | 0.835 | 0.7551 | 1.08 | 0.778 | 0.825
10 µM | 0.812 | 0.428 | 0.857 | 0.4619 | 0.651

COc1cc2nccc(Oc3ccc(NC(=O)NC4CC4)c(Cl)c3)c2cc1C(N)=O [Lenvatinib]
relative viability
Conditions | [1] | [2] | [3] | [4] | [5]
0.00017 µM | 1.01 | 1.01 | 0.985 | 1.02 | 1.07
0.00051 µM | 1.07 | 0.958 | 0.993 | 1.01 | 1.06
0.00152 µM | 1.04 | 0.971 | 1.04 | 1.04 | 1.08
0.00457 µM | 1.04 | 0.9651 | 1.04 | 1.05 | 1.1
0.01372 µM | 1.016 | 0.942 | 1.02 | 0.998 | 1.12
0.04115 µM | 1.014 | 0.939 | 1.02 | 1.04 | 1.11
0.1235 µM | 0.945 | 0.964 | 1.04 | 0.997 | 1.13
0.3704 µM | 0.833 | 0.936 | 1.047 | 1.04 | 1.13
1.111 µM | 0.702 | 0.765 | 1.04 | 0.98 | 1.15
3.333 µM | 0.621 | 0.597 | 1.08 | 0.953 | 1.118
10 µM | 0.542 | 0.454 | 0.984 | 0.972 | 1.04

C=CC(=O)Nc1cc(Nc2nccc(-c3cn(C)c4ccccc34)n2)c(OC)cc1N(C)CCN(C)C [Osimertinib]
relative viability
Conditions | [1] | [2] | [3] | [4] | [5]
0.00017 µM | 1.06 | 0.979 | 1.08 | 1.1 | 1.09
0.00051 µM | 0.954 | 0.947 | 1.08 | 1.1 | 1.09
0.00152 µM | 1.04 | 0.961 | 1.11 | 1.08 | 1.06
0.00457 µM | 0.976 | 0.932 | 1.11 | 1.07 | 1.04
0.01372 µM | 0.944 | 0.97 | 1.11 | 1.06 | 1.03
0.04115 µM | 0.933 | 0.941 | 1.11 | 1.03 | 1.02
0.1235 µM | 0.907 | 0.948 | 1.1 | 1.07 | 0.984
0.3704 µM | 0.822 | 0.882 | 1.07 | 1.02 | 0.926
1.111 µM | 0.78 | 0.758 | 1.02 | 0.972 | 0.877
3.333 µM | 0.681 | 0.569 | 0.78 | 0.776 | 0.752
10 µM | 0.533 | 0.29 | 0.0148 | 0.032 | 0.0739

COc1cc2ncnc(Nc3ccc(F)c(Cl)c3)c2cc1NC(=O)/C=C/CN1CCCCC1 [Dacomitinib]
relative viability
Conditions | [1] | [2] | [3] | [4] | [5]
0.00017 µM | 1.08 | 0.967 | 1.103 | 1.11 | 1.064
0.00051 µM | 1.04 | 0.942 | 1.09 | 1.11 | 1.08
0.00152 µM | 1.03 | 0.949 | 1.12 | 1.11 | 1.09
0.00457 µM | 1.04 | 0.932 | 1.141 | 1.13 | 1.09
0.01372 µM | 1.01 | 0.926 | 1.13 | 1.09 | 1.03
0.04115 µM | 0.975 | 0.927 | 1.12 | 1.08 | 0.979
0.1235 µM | 1 | 0.893 | 1.12 | 1.04 | 1.02
0.3704 µM | 0.894 | 0.879 | 1.08 | 1.03 | 0.994
1.111 µM | 0.844 | 0.731 | 0.976 | 0.916 | 0.914
3.333 µM | 0.737 | 0.342 | 0.347 | 0.701 | 0.535
10 µM | 0.318 | 0.00577 | 0.00617 | 0.013 | -0.0076

N#CCC1(n2cc(-c3ncnc4[nH]ccc34)cn2)CN(C2CCN(C(=O)c3ccnc(C(F)(F)F)c3F)CC2)C1 [Itacitinib]
relative viability
Conditions | [1] | [2] | [3] | [4] | [5]
0.00017 µM | 1 | 0.921 | 1.01 | 1.03 | 1.05
0.00051 µM | 0.966 | 0.934 | 1.02 | 1.02 | 1.03
0.00152 µM | 0.937 | 0.919 | 1.02 | 0.994 | 1.02
0.00457 µM | 0.889 | 0.908 | 1.07 | 0.976 | 1.02
0.01372 µM | 0.833 | 0.922 | 1.08 | 0.987 | 1.01
0.04115 µM | 0.885 | 0.894 | 1.05 | 0.997 | 1
0.1235 µM | 0.792 | 0.909 | 1.05 | 0.958 | 0.982
0.3704 µM | 0.822 | 0.886 | 1.03 | 0.954 | 0.97
1.111 µM | 0.806 | 0.898 | 1.04 | 0.969 | 0.972
3.333 µM | 0.758 | 0.864 | 1.04 | 0.913 | 0.942
10 µM | 0.751 | 0.827 | 1.06 | 0.883 | 0.859

Cc1ccc(C(=O)OCc2ccc([C@@H](CN)C(=O)Nc3ccc4cnccc4c3)cc2)c(C)c1 [Netarsudil]
relative viability
Conditions | [1] | [2] | [3] | [4] | [5]
0.00017 µM | 0.874 | 0.89 | 1.09 | 1.03 | 1.02
0.00051 µM | 0.85 | 0.901 | 1.1 | 1.05 | 1
0.00152 µM | 0.899 | 0.892 | 1.12 | 1.02 | 0.998
0.00457 µM | 0.852 | 0.905 | 1.11 | 1 | 1.02
0.01372 µM | 0.87 | 0.921 | 1.1 | 1.043 | 1.01
0.04115 µM | 0.896 | 0.884 | 1.14 | 1.03 | 0.991
0.1235 µM | 0.876 | 0.85 | 1.13 | 1.07 | 0.99
0.3704 µM | 0.844 | 0.775 | 1.15 | 0.989 | 0.998
1.111 µM | 0.812 | 0.672 | 1.15 | 0.799 | 1.03
3.333 µM | 0.8113 | 0.402 | 0.976 | 0.574 | 1.03
10 µM | 0.224 | 0.00233 | 0.0128 | 0.0101 | 0.659

CC[C@@H]1C(=O)N(C)c2cnc(Nc3ccc(C(=O)N[C@H]4CC[C@H](N5CCN(CC6CC6)CC5)CC4)cc3OC)nc2N1C(C)C [Volasertib]
relative viability
Conditions | [1] | [2] | [3] | [4] | [5]
0.00017 µM | 0.954 | 0.938 | 1.132 | 1.04 | 1.04
0.00051 µM | 0.995 | 0.966 | 1.12 | 1.01 | 1.04
0.00152 µM | 0.981 | 0.936 | 1.129 | 1.05 | 1.07
0.00457 µM | 0.954 | 0.932 | 1.14 | 1.04 | 1.06
0.01372 µM | 0.87 | 0.924 | 1.07 | 1 | 1.04
0.04115 µM | 0.685 | 0.637 | 0.363 | 0.551 | 0.486
0.1235 µM | 0.622 | 0.173 | 0.212 | 0.492 | 0.234
0.3704 µM | 0.657 | 0.0889 | 0.18 | 0.453 | 0.108
1.111 µM | 0.641 | 0.0861 | 0.169 | 0.459 | 0.0943
3.333 µM | 0.612 | 0.072 | 0.119 | 0.3806 | 0.074
10 µM | 0.0591 | 0.0076 | 0.0206 | 0.0152 | -0.00633

From the supplement of paper PMC10883282
